Reference: ChEMBL document CHEMBL1131813, “9-Deoxopodophyllotoxin derivatives as anti-cancer agents” (1999)

Columns and labels:
Settings in all cases: Homo sapiens
M14 = assay: In vitro cytotoxic activity against melanoma (M 14) cancer cell line.; assay type: functional
DU-145 = assay: In vitro cytotoxic activity against prostate (DU-145) cancer cell line.; assay type: functional
NCI-H522 = assay: In vitro cytotoxic activity against lung (H 522) cancer cell line.
NCI/ADR-RES = assay: In vitro cytotoxic activity against ADR resistant breast cancer (MCF-7-ADR) cell line.; assay type: functional
SW-620 = assay: In vitro cytotoxic activity against colon (SW 620) cancer cell line.; assay type: functional
A498 = assay: In vitro cytotoxic activity against renal (A 498) cancer cell line.; assay type: functional
SK-OV-3 = assay: In vitro cytotoxic activity against Ovarian (SK-OV3) cell line.; assay type: functional

Structure (SMILES) | GI50 (M14) [µM] | GI50 (DU-145) [µM] | GI50 (NCI-H522) [µM] | GI50 (NCI/ADR-RES) [µM] | GI50 (SW-620) [µM] | GI50 (A498) [µM] | GI50 (SK-OV-3) [µM]
COc1cc([C@@H]2c3cc4c(cc3[C@H](O)[C@H]3COC(OCCF)[C@H]23)OCO4)cc(OC)c1OC (stereo not given in full) | 60 | 80 | 80 | 50 | 70 | 80 | > 100
COc1cc([C@@H]2c3cc4c(cc3[C@@H](O)[C@H]3COC(CC(C)=O)[C@@H]23)OCO4)cc(OC)c1O (stereo not given in full) | 0.8 | 0.1 | 0.8 | 0.8 | 0.1 | 0.08 | 0.3
COCCOC1OC[C@H]2[C@H]1[C@H](c1cc(OC)c(OC)c(OC)c1)c1cc3c(cc1[C@@H]2O)OCO3 (stereo not given in full) | > 100 | 7 | 0.09 | > 100 | 80 | 0.05 | 20
COc1cc([C@@H]2c3cc4c(cc3[C@H](O)[C@H]3COC(CCO)[C@H]23)OCO4)cc(OC)c1OC (stereo not given in full) | > 100 | 0.5 | 0.05 | > 100 | > 100 | 0.05 | 0.8
COC(=O)CC1OC[C@H]2[C@H]1[C@H](c1cc(OC)c(OC)c(OC)c1)c1cc3c(cc1[C@@H]2O)OCO3 (stereo not given in full) | > 100 | 60 | 8 | 70 | 70 | < 0.01 | 4
COC(=O)CC1OC[C@H]2[C@H]1[C@H](c1cc(OC)c(O)c(OC)c1)c1cc3c(cc1[C@H]2O)OCO3 (stereo not given in full) | > 100 | > 100 | 9 | 60 | 20 | > 100 | 0.5
COc1cc([C@@H]2c3cc4c(cc3[C@H](O)[C@H]3COC(CC(C)=O)[C@H]23)OCO4)cc(OC)c1OC (stereo not given in full) | 20 | 20 | 20 | 60 | 60 | 0.02 | 6
COc1cc([C@@H]2c3cc4c(cc3[C@H](O)[C@H]3COC(OCCO)[C@H]23)OCO4)cc(OC)c1OC (stereo not given in full) | 60 | 20 | 10 | 70 | 70 | 0.01 | 0.09
COc1cc([C@@H]2c3cc4c(cc3[C@@H](O[C@@H]3O[C@@H]5CO[C@@H](C)O[C@H]5[C@H](O)[C@H]3O)[C@H]3COC(=O)[C@H]23)OCO4)cc(OC)c1O [ETOPOSIDE] | < 0.01 | 2 | 0.9 | 25 | 90 | 8 | < 0.01
COc1cc([C@@H]2c3cc4c(cc3[C@H](O)[C@H]3COC(=O)[C@H]23)OCO4)cc(OC)c1OC [PODOFILOX] | 0.07 | 0.04 | 0.7 | 0.6 | 2 | 0.08 | 0.9
